According to patent publication US20210332139A1, “MODULATION OF LEUKOCYTE ACTIVITY IN TREATMENT OF NEUROINFLAMMATORY DEGENERATIVE DISEASE” (Leuvas Therapeutics, priority 2013, published 2021):

Key:
Format in all cases: cell-based
LFA-1 = LFA-1 affinity state in human neutrophils (conformer-specific antibodies, cytofluorimetry); conditions: 20 μM, 10 s, mean fluorescence intensity, ctrl = 1
Source text: Neutrophil arrest is rapidly triggered by chemokines or other chemoattractants and is mediated by the binding of LFA-1 integrin to its vascular ligand ICAM-1. Ligation of specific heterotrimeric GPCRs by chemokines induces integrins to undergo a dramatic transition from a bent low-affinity conformation to extended intermediate- and high-affinity conformations, which leads to opening of the ligand-binding pocket. We hypothesized that Aβ may trigger intermediate and/or high affinity state of LFA-1 integrin and studied the effect of Aβ1-42 oligomers on human LFA-1 affinity using KIM127 and 327A conformer-specific antibodies for intermediate- and high-affinity state respectively.
The cells were stimulated for 10 s with 0.5 μmol/L of CXCL12, 0.1 μM fMLP, 20 μM Aβ1-42, or 20 μM Aβ42-1 under stirring at 37° C. After rapid washing, cells were stained with FITC-conjugated secondary polyclonal antibody and analyzed by cytofluorimetric quantification. Data are mean fluorescence intensity +/−SD from three independent experiments.

mouse neutrophils = assay: Rapid adhesion of mouse neutrophils to fibrinogen and ICAM-1; conditions: mean+/−SD
Source text: All data are expressed as the mean+/−SD of bound cells in 0.2 mm^2 from three independent experiments made in duplicate.

lymphocytes = assay: Rapid adhesion in lymphocytes; conditions: lymphocytes lack fMLP receptors, result in words
Experimental: It is known that one of the receptors for Aβ is the receptor for fMLP, formylpeptide chemotactic receptor (FPR). To evaluate the contribution of this GPCR receptor on Aβ-dependent neutrophil adhesion, we inhibited its function using boc-MLF, a formyl-peptide chemotactic receptor antagonist. Human neutrophils were incubated for 2 minutes with buffer (control) or with oligomeric Aβ. 0.1 μM fMLP was used as a positive control. Values are expressed as the mean counts of bound cells in 0.2 mm^2 from three independent experiments in duplicate. Error bars represent SD. […] To exclude the possibility that rapid adhesion triggering was a consequence of a generic plasma membrane alteration due to the lipophilic nature of Aβ, we evaluated rapid adhesion in lymphocytes, which are known to lack fMLP receptors.

## Abeta 1-42: soluble oligomeric amyloid-beta 1-42 peptide used as stimulus
LFA-1
  327A (high-affinity state of LFA-1): 3.29 ± 0.44
  KIM127 (intermediate-affinity state of LFA-1): 2.54 ± 0.12
Mouse neutrophils; 5 μM
  Rapid adhesion to Fibrinogen: 37.13 ± 3.25 bound cells in 0.2 mm^2
  Rapid adhesion to ICAM-1: 149.9 ± 28 bound cells in 0.2 mm^2
Mouse neutrophils; 10 μM
  Rapid adhesion to Fibrinogen: 44.75 ± 3.68 bound cells in 0.2 mm^2
  Rapid adhesion to ICAM-1: 201.9 ± 14.14 bound cells in 0.2 mm^2
Mouse neutrophils; 20 μM
  Rapid adhesion to Fibrinogen: 88.75 ± 7.72 bound cells in 0.2 mm^2
  Rapid adhesion to ICAM-1: 285.3 ± 12.5 bound cells in 0.2 mm^2
Mouse neutrophils; Abeta 1 μM
  Rapid adhesion to Fibrinogen: 8 ± 2.42 bound cells in 0.2 mm^2
  Rapid adhesion to ICAM-1: 27.42 ± 3.59 bound cells in 0.2 mm^2
lymphocytes
  Adhesion to fibrinogen or to ICAM-1 in lymphocytes: did not induce adhesion
